These results are taken from US11739101B2, “Bifunctional degraders of hematopoietic progenitor kinase and therapeutic uses thereof” (Nurix Therapeutics, Inc., priority 2020, dated 2023).

In general, Dmax refers to the largest share of the target that was removed. The low end stands for shallow degradation, the high end for deep degradation.

Some results are limits rather than exact numbers.

The test deals with T1, HPK1 (Homo sapiens, UniProt Q92918).
T1 construct: A HiBiT tag was introduced by CRISPR on the N terminus of HPK1 in Jurkat cells; host or cells: Jurkat (ATCC TIB-152), monoclonal CRISPR HiBiT knock-in line
In words: HPK1 Cellular HiBiT Degradation Assay. It counts as cell-based. The note with it: HiBiT-tagged HPK1 Jurkat cells, 24 hours, 10 uM to 0.1 nM; Dmax = 100 minus lowest % HPK1 remaining vs DMSO vehicle. As for the experimental part: HiBiT HPK1 Jurkat cell lines were used to evaluate the total protein levels of HPK1 in a robust human cellular high throughput format. The level of HPK1 remaining following treatment with HPK1 CTMs is reported as Dmax (maximum degradation) achieved at 24 hours when compared to vehicle treated controls. […] These decreases were not a result of cytotoxicity measured by a parallel viability assessment (CTG). See also Table 1.
A HiBiT tag was introduced by CRISPR on the N terminus of HPK1 in Jurkat cells (ATCC® TIB-152) to allow quantitation of HPK1 protein levels in a monoclonal human cell line. Cells were plated at 1×10^6 cells/mL, 30 uL/well (3×10^4 cells/well) in complete RPMI 1640 (10% heat inactivated FBS, 1% L-glutamine) in 384-well assay plates (Corning, cat. no. 3570). HPK1 chimeric targeting molecules (CTMs) were added in an 11-point dilution series (3.16-fold) with a final assay concentration range of 10 uM to 0.1 nM. The parental Jurkat cell line, with no HiBiT insertion, was included in the assay as a background control. Cells treated with a DMSO vehicle control were used to determine the maximum signal defining 100% HPK1 in the cell. Cells were incubated for 24 hours at 37° C./5% CO2. Following incubation, 30 uL of complete Nano-Glo HiBiT Lytic Detection Reagent (Promega cat. no. N3040) was added. Cells were incubated for 10 minutes at room temperature and luminescence was read on an EnVision plate reader (Perkin Elmer, 0.1 sec per well). Parallel plates were assessed for viability using Cell Titer Glo (Promega) and read on an EnVision plate reader to ensure results were not the effect of cytotoxicity. Percent HPK1 remaining per sample was calculated as follows: […]
% HPK1 remaining values were plotted as a function of compound concentration and curves were fit using the Prism (GraphPad) equation “log(inhibitor) vs response−Variable slope (four parameters)”. Dmax values were calculated by identifying the lowest % remaining and subtracting from 100. Dmax values are provided in Table 1, wherein A>65%, 45%≤B≤65% and C<45%.
(In general: HiBiT is a short tag that completes a luciferase, so light tracks the accessible tagged protein.)

T1 sequence (Q92918 whole entry): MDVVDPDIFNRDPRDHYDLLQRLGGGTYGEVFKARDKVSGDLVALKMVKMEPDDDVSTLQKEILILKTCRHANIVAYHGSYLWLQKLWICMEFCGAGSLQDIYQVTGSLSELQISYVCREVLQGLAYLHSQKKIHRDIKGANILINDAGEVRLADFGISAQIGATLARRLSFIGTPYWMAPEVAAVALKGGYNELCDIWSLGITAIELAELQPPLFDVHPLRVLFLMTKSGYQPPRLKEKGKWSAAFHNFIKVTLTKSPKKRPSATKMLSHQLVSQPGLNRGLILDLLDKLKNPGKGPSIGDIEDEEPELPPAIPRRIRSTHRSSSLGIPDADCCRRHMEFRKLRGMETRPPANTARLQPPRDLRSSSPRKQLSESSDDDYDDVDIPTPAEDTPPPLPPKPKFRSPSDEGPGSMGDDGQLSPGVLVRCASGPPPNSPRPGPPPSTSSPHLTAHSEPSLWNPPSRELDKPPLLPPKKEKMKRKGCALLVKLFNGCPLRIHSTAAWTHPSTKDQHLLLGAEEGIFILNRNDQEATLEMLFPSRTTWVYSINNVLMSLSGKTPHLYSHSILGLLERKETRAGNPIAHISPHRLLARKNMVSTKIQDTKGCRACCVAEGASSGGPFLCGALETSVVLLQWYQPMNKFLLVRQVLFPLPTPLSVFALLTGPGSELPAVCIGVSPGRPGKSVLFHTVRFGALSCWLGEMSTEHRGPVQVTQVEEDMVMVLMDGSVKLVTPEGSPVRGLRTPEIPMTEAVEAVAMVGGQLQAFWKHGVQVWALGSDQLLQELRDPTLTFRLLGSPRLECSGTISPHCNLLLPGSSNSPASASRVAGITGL

On to `Cc1cc(F)c(Nc2nc(-c3ccc4c(c3)N(C3CC(N5CCCCC5)C3)C(=O)C43CCN(C(=O)CCCCCCCCCC(=O)N[C@H](C(=O)N4C[C@H](O)C[C@H]4C(=O)N[C@@H](C)c4ccc(-c5scnc5C)cc4)C(C)(C)C)CC3)cc3ncn(C(C)C)c23)cc1C(=O)NC(C)C` (stereo partly drawn) [Example 8, (2S,4R)-1-((S)-2-(11-(6-(4-((2-fluoro-5-(isopropylcarbamoyl)-4-methylphenyl)amino)-3-isopropyl-3H-imidazo[4,5-c]pyridin-6-yl)-2-oxo-1-((1s,3s)-3-(piperidin-1-yl)cyclobutyl)spiro[indoline-3,4′-piperidin]-1′-yl)-11-oxoundecanamido)-3,3-dimethylbutanoyl)-4-hydroxy-N—((S)-1-(4-(4-methylthiazol-5-yl)phenyl)ethyl)pyrrolidine-2-carboxamide], for which the “Cellular HPK1 HiBiT: Dmax (%)” value was “A (A>65%)”.
`Cc1cc(F)c(Nc2nc(-c3ccc4c(c3)N([C@H]3C[C@@H](N5CCCCC5)C3)C(=O)C43CCN(C(=O)CCOCCOCCOCCOc4cc(-c5scnc5C)ccc4CNC(=O)[C@H]4C[C@H](O)CN4C(=O)[C@H](NC(=O)C4(F)CC4)C(C)(C)C)CC3)cc3ncn(C(C)C)c23)cc1C(=O)NC(C)C` [Example 9, (2S,4R)—N-(2-(2-(2-(2-(3-(6-(4-((2-fluoro-5-(isopropylcarbamoyl)-4-methylphenyl)amino)-3-isopropyl-3H-imidazo[4,5-c]pyridin-6-yl)-2-oxo-1-((1s,3s)-3-(piperidin-1-yl)cyclobutyl)spiro[indoline-3,4′-piperidin]-1′-yl)-3-oxopropoxy)ethoxy)ethoxy)ethoxy)-4-(4-methylthiazol-5-yl)benzyl)-1-((S)-2-(1-Fluorocyclopropane-1-carboxamido)-3,3-dimethylbutanoyl)-4-hydroxypyrrolidine-2-carboxamide]: the Dmax was less than 45%.
On the same count and under the same terms, under `Cc1cc(F)c(Nc2nc(-c3ccc4c(c3)N([C@H]3C[C@@H](N5CCCCC5)C3)C(=O)C43CCN(C(=O)CCCCCCCC(=O)N[C@H](C(=O)N4C[C@H](O)C[C@H]4C(=O)N[C@@H](C)c4ccc(-c5scnc5C)cc4)C(C)(C)C)CC3)cc3ncn(C(C)C)c23)cc1C(=O)NC(C)C` [Example 10, (2S,4R)-1-((S)-2-(9-(6-(4-((2-fluoro-5-(isopropylcarbamoyl)-4-methylphenyl)amino)-3-isopropyl-3H-imidazo[4,5-c]pyridin-6-yl)-2-oxo-1-((1s,3s)-3-(piperidin-1-yl)cyclobutyl)spiro[indoline-3,4′-piperidin]-1′-yl)-9-oxononanamido)-3,3-dimethylbutanoyl)-4-hydroxy-N—((S)-1-(4-(4-methylthiazol-5-yl)phenyl)ethyl)pyrrolidine-2-carboxamide] stands more than 65%; under `Cc1cc(F)c(Nc2nc(-c3ccc4c(c3)N([C@H]3C[C@@H](N5CCCCC5)C3)C(=O)C43CCN(C(=O)CCOCCNc4cccc5c4C(=O)N(C4CCC(=O)NC4=O)C5=O)CC3)cc3ncn(C(C)C)c23)cc1C(=O)NC(C)C` (some centres unmarked) [Example 11, 5-((6-(1′-(3-(2-((2-(2,6-dioxopiperidin-3-yl)-1,3-dioxoisoindolin-4-yl)amino)ethoxy)propanoyl)-2-oxo-1-((1s,3s)-3-(piperidin-1-yl)cyclobutyl)spiro[indoline-3,4′-piperidin]-6-yl)-3-isopropyl-3H-imidazo[4,5-c]pyridin-4-yl)amino)-4-fluoro-N-isopropyl-2-methylbenzamide], less than 45%.
Take `Cc1cc(F)c(Nc2nc(-c3ccc4c(c3)N([C@H]3C[C@@H](N5CCCCC5)C3)C(=O)C43CCN(C(=O)CCOCCOCCOCCOCCOCCNc4cccc5c4C(=O)N(C4CCC(=O)NC4=O)C5=O)CC3)cc3ncn(C(C)C)c23)cc1C(=O)NC(C)C` (some centres unmarked) [Example 12, 5-((6-(1′-(1-((2-(2,6-dioxopiperidin-3-yl)-1,3-dioxoisoindolin-4-yl)amino)-3,6,9,12,15-pentaoxaoctadecan-18-oyl)-2-oxo-1-((1s,3s)-3-(piperidin-1-yl)cyclobutyl)spiro[indoline-3,4′-piperidin]-6-yl)-3-isopropyl-3H-imidazo[4,5-c]pyridin-4-yl)amino)-4-fluoro-N-isopropyl-2-methylbenzamide]: the Dmax lay within 45 to 65%.
Compound `Cc1cc(F)c(Nc2nc(-c3ccc4c(c3)N([C@H]3C[C@@H](N5CCCCC5)C3)C(=O)C43CCN(C(=O)CCCCCCCOc4cc(-c5scnc5C)ccc4CNC(=O)[C@@H]4C[C@@H](O)CN4C(=O)[C@@H](NC(=O)C4(F)CC4)C(C)(C)C)CC3)cc3ncn(C(C)C)c23)cc1C(=O)NC(C)C` [Example 13, (2S,4R)—N-(2-((8-(6-(4-((2-fluoro-5-(isopropylcarbamoyl)-4-methylphenyl)amino)-3-isopropyl-3H-imidazo[4,5-c]pyridin-6-yl)-2-oxo-1-((1s,3s)-3-(piperidin-1-yl)cyclobutyl)spiro[indoline-3,4′-piperidin]-1′-yl)-8-oxooctyl)oxy)-4-(4-methylthiazol-5-yl)benzyl)-1-((S)-2-(1-fluorocyclopropane-1-carboxamido)-3,3-dimethylbutanoyl)-4-hydroxypyrrolidine-2-carboxamide] returned a maximal degradation (Dmax) of less than 45%.
The same measure, in the same setting: under `Cc1cc(F)c(Nc2nc(-c3ccc4c(c3)N([C@H]3C[C@@H](N5CCCCC5)C3)C(=O)C43CCN(C(=O)CCC4CCN(CC(=O)N[C@H](C(=O)N5C[C@H](O)C[C@H]5C(=O)N[C@@H](C)c5ccc(-c6scnc6C)cc5)C(C)(C)C)CC4)CC3)cc3ncn(C(C)C)c23)cc1C(=O)NC(C)C` [Example 14, (2S,4R)-1-((S)-2-(2-(4-(3-(6-(4-((2-fluoro-5-(isopropylcarbamoyl)-4-methylphenyl)amino)-3-isopropyl-3H-imidazo[4,5-c]pyridin-6-yl)-2-oxo-1-((1s,3s)-3-(piperidin-1-yl)cyclobutyl)spiro[indoline-3,4′-piperidin]-1′-yl)-3-oxopropyl)piperidin-1-yl)acetamido)-3,3-dimethylbutanoyl)-4-hydroxy-N—((S)-1-(4-(4-methylthiazol-5-yl)phenyl)ethyl)pyrrolidine-2-carboxamide] stands 45 to 65%; under `CC(=O)N1CCC2(CC1)C(=O)N([C@H]1C[C@@H](N3CCC[C@@H](C(=O)NCCCCCCCCCNc4ccc5c(c4)C(=O)N(C4CCC(=O)NC4=O)C5=O)C3)C1)c1cc(-c3cc4ncn(C(C)C)c4c(Nc4cc(C(=O)NC(C)C)c(C)cc4F)n3)ccc12` (stereo partly drawn) [Example 15, (3R)-1-((1s,3s)-3-(1′-acetyl-6-(4-((2-fluoro-5-(isopropylcarbamoyl)-4-methylphenyl)amino)-3-isopropyl-3H-imidazo[4,5-c]pyridin-6-yl)-2-oxospiro[indoline-3,4′-piperidin]-1-yl)cyclobutyl)-N-(9-((2-(2,6-dioxopiperidin-3-yl)-1,3-dioxoisoindolin-5-yl)amino)nonyl)piperidine-3-carboxamide], less than 45%.
